The text below walks through data of patent publication US10168342B2, “Lipid probes and uses thereof” (THE SCRIPPS RESEARCH INSTITUTE, priority 2015, dated 2019).

Where two headings read alike, the source gives them in different places.

Assay [1] deals with T1, AEA-DA lipid probe targets in Neuro2a cells (Mus musculus, UniProt G5E829).
T1 sequence (G5E829 1-1220): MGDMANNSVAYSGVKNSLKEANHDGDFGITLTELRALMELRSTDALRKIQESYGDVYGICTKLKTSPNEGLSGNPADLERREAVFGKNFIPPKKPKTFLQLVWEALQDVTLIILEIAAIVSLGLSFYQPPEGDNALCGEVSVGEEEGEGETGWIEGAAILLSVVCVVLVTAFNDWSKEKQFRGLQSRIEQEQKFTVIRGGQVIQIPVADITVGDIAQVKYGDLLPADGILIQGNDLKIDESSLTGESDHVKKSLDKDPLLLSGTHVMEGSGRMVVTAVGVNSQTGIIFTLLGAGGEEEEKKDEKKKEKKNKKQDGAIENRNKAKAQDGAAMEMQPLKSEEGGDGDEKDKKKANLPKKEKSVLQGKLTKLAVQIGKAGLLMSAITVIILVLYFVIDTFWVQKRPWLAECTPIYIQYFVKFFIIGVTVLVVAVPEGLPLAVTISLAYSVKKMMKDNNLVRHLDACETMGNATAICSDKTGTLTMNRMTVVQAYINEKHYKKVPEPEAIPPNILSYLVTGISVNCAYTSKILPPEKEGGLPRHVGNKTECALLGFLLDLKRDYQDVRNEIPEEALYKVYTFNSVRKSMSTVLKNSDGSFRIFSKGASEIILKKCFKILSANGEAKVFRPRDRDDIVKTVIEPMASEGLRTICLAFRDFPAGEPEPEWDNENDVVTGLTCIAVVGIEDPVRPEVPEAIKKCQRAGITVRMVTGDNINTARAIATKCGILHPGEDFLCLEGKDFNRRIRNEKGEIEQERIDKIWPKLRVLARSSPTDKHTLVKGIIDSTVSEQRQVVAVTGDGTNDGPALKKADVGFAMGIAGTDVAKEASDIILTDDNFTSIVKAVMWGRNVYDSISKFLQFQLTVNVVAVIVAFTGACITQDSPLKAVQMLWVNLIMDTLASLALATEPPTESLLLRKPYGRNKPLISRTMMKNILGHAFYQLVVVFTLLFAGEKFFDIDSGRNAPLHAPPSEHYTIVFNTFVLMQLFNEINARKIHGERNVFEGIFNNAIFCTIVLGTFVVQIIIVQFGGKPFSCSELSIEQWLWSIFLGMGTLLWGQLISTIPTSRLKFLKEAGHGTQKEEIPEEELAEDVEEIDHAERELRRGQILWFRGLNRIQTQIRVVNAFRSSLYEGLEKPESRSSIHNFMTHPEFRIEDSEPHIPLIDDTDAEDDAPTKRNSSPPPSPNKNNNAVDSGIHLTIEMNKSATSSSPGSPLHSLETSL

Assay [2] concerns the target T2, AEA-DA lipid probe targets in Neuro2a cells (Mus musculus, UniProt O08579).
T2 sequence (O08579 1-259): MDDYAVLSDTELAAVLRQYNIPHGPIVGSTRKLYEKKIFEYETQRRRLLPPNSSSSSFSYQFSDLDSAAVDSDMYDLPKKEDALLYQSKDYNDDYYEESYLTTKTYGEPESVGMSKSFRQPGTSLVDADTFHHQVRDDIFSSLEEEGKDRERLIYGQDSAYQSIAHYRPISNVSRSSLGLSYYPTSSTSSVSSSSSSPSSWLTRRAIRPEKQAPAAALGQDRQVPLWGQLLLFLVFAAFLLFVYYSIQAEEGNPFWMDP
The settings on record: for SILAC ratio, EMD (O08579): Neuro2a cells, AEA-DA probe.

Assay [3] concerns the target T3, AEA-DA lipid probe targets in Neuro2a cells (Mus musculus, UniProt P22315).
T3 sequence (P22315 54-422): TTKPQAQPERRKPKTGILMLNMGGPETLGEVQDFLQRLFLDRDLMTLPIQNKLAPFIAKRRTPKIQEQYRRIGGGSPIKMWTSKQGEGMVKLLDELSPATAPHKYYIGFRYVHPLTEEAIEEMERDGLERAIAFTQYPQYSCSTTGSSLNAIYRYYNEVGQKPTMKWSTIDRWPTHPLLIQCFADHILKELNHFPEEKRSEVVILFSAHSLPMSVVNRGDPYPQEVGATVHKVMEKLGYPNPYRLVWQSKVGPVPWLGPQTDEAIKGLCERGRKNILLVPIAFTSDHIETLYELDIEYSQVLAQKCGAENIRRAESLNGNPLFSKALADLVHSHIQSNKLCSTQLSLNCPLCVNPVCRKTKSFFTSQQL

Assay [4] has as its target T4, AEA-DA lipid probe targets in Neuro2a cells (Mus musculus, UniProt Q3U9G9).
T4 sequence (Q3U9G9 1-626): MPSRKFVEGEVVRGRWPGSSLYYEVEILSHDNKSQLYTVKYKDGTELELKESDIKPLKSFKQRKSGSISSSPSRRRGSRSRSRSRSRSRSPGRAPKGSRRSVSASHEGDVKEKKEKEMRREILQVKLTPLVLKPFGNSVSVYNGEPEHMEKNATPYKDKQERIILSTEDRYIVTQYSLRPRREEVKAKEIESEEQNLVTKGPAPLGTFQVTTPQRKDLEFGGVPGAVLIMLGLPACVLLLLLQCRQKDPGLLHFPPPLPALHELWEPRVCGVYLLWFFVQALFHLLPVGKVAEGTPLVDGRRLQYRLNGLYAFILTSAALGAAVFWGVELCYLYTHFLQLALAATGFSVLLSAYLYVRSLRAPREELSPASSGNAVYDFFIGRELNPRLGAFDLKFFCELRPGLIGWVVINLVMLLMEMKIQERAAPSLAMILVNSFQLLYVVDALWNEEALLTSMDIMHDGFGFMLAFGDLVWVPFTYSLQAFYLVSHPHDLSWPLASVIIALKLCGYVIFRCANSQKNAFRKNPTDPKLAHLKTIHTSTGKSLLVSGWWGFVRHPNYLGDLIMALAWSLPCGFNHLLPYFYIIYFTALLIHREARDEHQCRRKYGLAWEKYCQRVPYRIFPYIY

In assay [5] the target is AEA-DA lipid probe targets in Neuro2a cells (Mus musculus, UniProt Q64310).
Chain of AEA-DA lipid probe targets in Neuro2a cells (Mus musculus, UniProt Q64310) (Q64310 whole entry): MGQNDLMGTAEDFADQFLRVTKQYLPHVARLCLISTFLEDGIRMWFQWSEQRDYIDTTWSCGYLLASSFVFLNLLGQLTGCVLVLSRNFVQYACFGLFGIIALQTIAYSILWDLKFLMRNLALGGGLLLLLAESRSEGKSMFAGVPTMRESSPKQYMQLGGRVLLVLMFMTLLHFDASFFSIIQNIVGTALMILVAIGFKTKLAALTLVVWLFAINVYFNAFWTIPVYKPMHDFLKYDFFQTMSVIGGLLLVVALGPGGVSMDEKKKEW

On to `CCCCC/C=C\C/C=C\C/C=C\C/C=C\CCCC(=O)NCCO` [AEA, anandamide, reference compound], for which the “SILAC ratio Atp2b1” value in assay [1] (competitor 200 μM) is on record as 1.6. Also, in assay [2] (competitor 200 μM), the “SILAC ratio, EMD (O08579)” value was 1.4 and the “SILAC ratio, Emd” value is 1.4. Further, the “SILAC ratio, Fech” value in assay [3] (competitor 200 μM) amounted to 1.3. The “SILAC ratio, Lbr” value in assay [4] (competitor 200 μM) worked out at 2.0. For the same molecule, the “SILAC ratio Surf4” value in assay [5] (competitor 200 μM) is 1.4.
Regarding `O=C(/C=C/c1cccnc1)NCCCCC1CCN(C(=O)c2ccccc2)CC1` [FK-866, reference compound], the “SILAC ratio Atp2b1” value in assay [1] (competitor 25 μM) is reported as 1.2. In assay [2] (competitor 25 μM), the “SILAC ratio, EMD (O08579)” value was found to be 1.4 and the “SILAC ratio, Emd” value is on record as 1.4. Moreover, the “SILAC ratio, Fech” value in assay [3] (competitor 25 μM) was 20.0. Besides, the “SILAC ratio, Lbr” value in assay [4] (competitor 25 μM) is 1.0. The “SILAC ratio Surf4” value in assay [5] (competitor 25 μM) is recorded as 1.2.
For `CN1CCN(C(=O)c2c(-c3ccccc3)c3cc([N+](=O)[O-])ccc3n2C)CC1` [KML110, (1-Methyl-5-nitro-3-phenyl-1H-indol-2-yl)(4-methylpiperazin-1-yl)methanone], the “SILAC ratio Atp2b1” value in assay [1] (competitor 25 μM) came out at 1.8. In addition, the “SILAC ratio, Emd” value in assay [2] (competitor 25 μM) is 1.7. Further, the “SILAC ratio, Fech” value in assay [3] (competitor 25 μM) is on record as 2.2. Further, the “SILAC ratio, Lbr” value in assay [4] (competitor 25 μM) came to 1.2. Moreover, the “SILAC ratio Surf4” value in assay [5] (competitor 25 μM) is reported as 1.4.
For `CN1CCN(C(=O)c2[nH]c3ccc([N+](=O)[O-])cc3c2-c2ccccc2)CC1` [MJN228, (4-Methylpiperazin-1-yl)(5-nitro-3-phenyl-1H-indol-2-yl)methanone], the “SILAC ratio Atp2b1” value in assay [1] (competitor 10 μM) was found to be 1.1; in assay [1] (competitor 25 μM) it was 1.4; in assay [1] (competitor 50 μM) it was 1.4; in assay [1] (competitor 100 μM) it was 1.7. Further, the “SILAC ratio, EMD (O08579)” value in assay [2] (competitor 25 μM) amounted to 2.4. For the same molecule, the “SILAC ratio, Emd” value in assay [2] (competitor 10 μM) was found to be 1.8; in assay [2] (competitor 25 μM) it was 2.4; in assay [2] (competitor 50 μM) it was 2.5; in assay [2] (competitor 100 μM), 4.5. For the same molecule, the “SILAC ratio, Fech” value in assay [3] (competitor 10 μM) is 1.0; in assay [3] (competitor 25 μM), 2.4; in assay [3] (competitor 50 μM), 3.0; in assay [3] (competitor 100 μM) it was 2.9. Further, the “SILAC ratio, Lbr” value is on record as 1.1 in assay [4] (competitor 10 μM), 1.3 in assay [4] (competitor 25 μM), 1.5 in assay [4] (competitor 50 μM) and 1.8 in assay [4] (competitor 100 μM). In addition, the “SILAC ratio Surf4” value in assay [5] (competitor 10 μM) was 1.3; in assay [5] (competitor 25 μM), 1.4; in assay [5] (competitor 50 μM), 1.7; in assay [5] (competitor 100 μM) it was 2.0.
On to `C=CCN(C)CCCCCCOc1ccc(C(=O)c2ccc(Br)cc2)c(F)c1` [Ro 48-8071, reference compound], for which, in assay [1] (competitor 25 μM), the “SILAC ratio Atp2b1” value stood at 1.1. Moreover, in assay [2] (competitor 25 μM), the “SILAC ratio, EMD (O08579)” value was 1.3 and the “SILAC ratio, Emd” value was 1.3. Moreover, the “SILAC ratio, Fech” value in assay [3] (competitor 25 μM) turned out to be 1.4. In addition, in assay [4] (competitor 25 μM), the “SILAC ratio, Lbr” value amounted to 1.9. In addition, in assay [5] (competitor 25 μM), the “SILAC ratio Surf4” value was determined as 1.1.
